Data from patent US10725057B2, “Method for pretreatment and method for analysis of lenalidomide in biological sample” (Shiseido Company, Ltd, priority 2014, dated 2020).

Legend:
[1] = Racemization half-life under biological buffer conditions (Na-phosphorate buffer pH 7.4, 37° C.); conditions: average of 3 tests ± SD
[2] = Racemization half-life in human serum (37° C.); conditions: for racemization half-life in serum, times longer than the corresponding TD enantiomer: human serum, 37° C.; for half-life in human serum compared to buffer: pH 7.4
Description: The analysis method of the invention is shown as FIG. 15(b). The acid used to suspend the reaction while simultaneously precipitating and removing the protein was HClO4.
(§1) Apparatus: Nanospace SI-2 Series (Shiseido Corp.)

[3] = Dependence of racemization of lenalidomide enantiomers on pH in aqueous buffers at room temperature; format: physicochemical
[4] = human blood plasma (NPL 10); cited from earlier work
[5] = NPL 5; cited from earlier work
[6] = Stability of lenalidomide in different solvents (HPLC peak areas of the enantiomers); format: physicochemical; conditions: 0.5 mg/mL racemic mixture, room temperature or 50° C., 24 hours
Procedure: A racemic mixture of 0.5 mg/mL lenalidomide in methanol, ethanol, isopropanol, acetonitrile or ethyl acetate, as the sample (product of Selleck Chemicals, US) was incubated at room temperature or at 50° C. for 24 hours, and the following HPLC conditions were employed for quantification of the lenalidomide enantiomers, for evaluation of the stability of lenalidomide in the different solvents.
as §1
Mobile phase: EtOH (100%)
Injection volume: 5 μL, Detection: UV 230 nm.
The peak areas for the enantiomers before and after incubation are shown in FIG. 1 (the initially observed peaks are enantiomer 1, and the next observed peaks are enantiomer 2). […] Lenalidomide was also stable even in isopropanol.

[7] = system: recurrent intractable multiple myeloma; conditions: in combination with dexamethasone; cited from earlier work
[8] = system: corneal vascularization elicited by bFGF or VEGF; conditions: compared to the R-form or racemic form (NPL 6); cited from earlier work

## Nc1cccc2c1CN([C@H]1CCC(=O)NC1=O)C2=O (single isomer, unassigned) [(S*)-LL]
[1]
  racemization half-life in aqueous buffer: 4.53 ± 0.0217 h
[2]
  racemization half-life in serum, times longer than the corresponding TD enantiomer: 6 times
  racemization half-life in human serum: 2.18 ± 0.0817 h
[3]; pH 6, room temperature
  racemization on incubation in aqueous buffer: A small amount of (R*)-LL was produced
[3]; pH 7 and higher, room temperature
  racemization on incubation in aqueous buffer: racemization was significantly accelerated

## O=C1CCC(N2C(=O)c3ccccc3C2=O)C(=O)N1 (racemic) [thalidomide]
[4]
  racemization half-life in human blood plasma: approximately 10 minutes
[5]
  sedative action: only been reported with the R-form

## Nc1cccc2c1CN(C1CCC(=O)NC1=O)C2=O (racemic) [lenalidomide, Lenalidomide]
[6]; acetonitrile and ethyl acetate
  stability in solvent (decomposition): no decomposition was observed
[6]; isopropanol
  stability in solvent: stable
[6]; methanol and ethanol
  stability in solvent: highly unstable
[7]
  success rate: 60%
[3]; acidic conditions (<pH 4)
  stability of the enantiomers: stable
[3]; aqueous buffers pH 4 to 9, room temperature
  increase of racemization half-life for every pH reduction of 1: 10 times
[3]; pH 4, room temperature
  racemization half-life: estimation of the half-life was no longer possible
[3]; pH 9 and 8, room temperature
  racemization and decomposition (peak areas) in aqueous buffer: racemization and decomposition of LL takes place

## O=C1CC[C@H](N2C(=O)c3ccccc3C2=O)C(=O)N1 [(S)-TD, S-thalidomide]
[1]
  racemization half-life in aqueous buffer: 4.43 ± 0.167 h
[2]
  racemization half-life in human serum: 0.363 ± 0.0167 h
  half-life in human serum compared to buffer: 8.2%

## Nc1cccc2c1CN([C@@H]1CCC(=O)NC1=O)C2=O (single isomer, unassigned) [(R*)-LL]
[1]
  racemization half-life in aqueous buffer: 4.45 ± 0.0183 h
[2]
  racemization half-life in serum, times longer than the corresponding TD enantiomer: 3 times
  racemization half-life in human serum: 1.82 ± 0.0333 h

## 3-amino-phthalimide-glutarimide [S-pomalidomide]
[8]
  inhibition of corneal vascularization: significantly inhibit

## O=C1CC[C@@H](N2C(=O)c3ccccc3C2=O)C(=O)N1 [(R)-TD, R-thalidomide]
[1]
  racemization half-life in aqueous buffer: 4.92 ± 0.4 h
[2]
  racemization half-life in human serum: 0.548 ± 0.417 h
  half-life in human serum compared to buffer: 11.1%
